Values quoted from earlier work as cited in US20160235839A1, “CALCIUM FLUORIDE COMPOSITIONS” (priority 2013, published 2016).

Test system: chicken red blood cells
Conditions: no cholesterol

QS21
Hemolytic activity of QS21 by itself: too hemolytic
